Tested on: U87 cells
Experiment: Comparison of peptide variants by crystal violet staining and light microscopy
Details: U87 cells; 7.5, 10, 15, 20 and 25 µg/ml; 3 hours incubation
Source text: The sizes of the resulting in silico peptides varied from 10 to 30 amino acids. In order to facilitate their cellular internalisation, a TAT-HIV sequence was attached to the C-terminal ends. All peptides were […]. The peptide library was produced by Cambridge Peptides (Cambridge, UK). The peptides were then screened with the MTT (3-(4,5-dimethylthiazol-2-yl)-2,5-diphenyltetrazolium bromide) assay on U87 human glioma cells. Cellular morphology after peptide exposure was assessed by crystal violet staining and light microscopy. All experiments were performed in triplicate.
To increase the stability of the peptide, two further sub-formulations of the original formula (L-aa, containing only L-amino acids) were created: D-aa (retro inversed, (ri)), a peptide comprised of a backward sequence of the original in silico formula, yet made up solely of D-amino acids and an analogue peptide to original in silico peptide formula, comprised of D-amino acids. D-amino acids are highly resistant to protease mediated degradation and have a low immunogenic response. The respective peptide variants were tested in the following concentrations: 7.5, 10, 15, 20 and 25 µg/ml and incubated for 3 hours.

Question: Ac-YGRKKRRQRRRGKTLRVAKAIYKRYIE-NH2 was tested. Which “cytotoxic effect / potency by crystal violet staining” value did it give?
Answer: cytotoxic effect
